# Measurements reported in patent US9476099B2 (TRUSTEES OF DARTMOUTH COLLEGE, priority 2012, dated 2016).
# Several values for one entry are separate records, joined by “and”; a condition that tells them apart may be missing. Equal entries are not always repeated.
# Test system: NT2/D1-R1 control and DNMT3B knockdown cells
# Assay: Genome-wide expression analysis with PAM clusters, control and DNMT3B knockdown cells (Tables 8-14)
# Settings: sh-3B + aza
# [1] = NT2/D1-R1 DNMT3B knockdown, decitabine 10 nM 3 days
smiles,measurement,setting,value
Nc1ncn([C@H]2C[C@H](O)[C@@H](CO)O2)c(=O)n1 [aza],LOC644422 XR_019449 expression Mean,"10 nM decitabine, 3 days",223.185
same,LOC647954 XR_018676 expression Mean,"10 nM decitabine, 3 days",1052.7
same,LOC728715 XM_0011282 expression Mean,"10 nM decitabine, 3 days",877.255
same,M6PRBP1 NM_005817 expression Mean,"10 nM decitabine, 3 days",907.761
same,MBNL3 NM_133486 expression Mean,"10 nM decitabine, 3 days",272.09
same,MCM4 NM_005914 expression Mean,"10 nM decitabine, 3 days",2040.37
same,MEPCE NM_019606 expression Mean,"10 nM decitabine, 3 days",354.1
same,METTL1 NM_005371 expression Mean,"10 nM decitabine, 3 days",266.779
same,MORF4L2 NM_012286 expression Mean,"10 nM decitabine, 3 days",2564.56
same,MRTO4 NM_016183 expression Mean,"10 nM decitabine, 3 days",654.553
same,MT1E NM_175617 expression Mean,"10 nM decitabine, 3 days",1985.42
same,MTA2 NM_004739 expression Mean,"10 nM decitabine, 3 days",325.004
same,MYOF NM_013451 expression Mean,"10 nM decitabine, 3 days",177.015
same,MYOF NM_133337 expression Mean,"10 nM decitabine, 3 days",293.772
same,NACC2 NM_144653 expression Mean,"10 nM decitabine, 3 days",245.995
same,NAT5 NM_181528 expression Mean,"10 nM decitabine, 3 days",1059.57
same,NBPF10 NM_0010376 expression Mean,"10 nM decitabine, 3 days",370.658
same,NBPF10 NM_0010397 expression Mean,"10 nM decitabine, 3 days",345.645
same,NEFH NM_021076 expression Mean,"10 nM decitabine, 3 days",407.674
same,NFE2 NM_006163 expression Mean,"10 nM decitabine, 3 days",245.362
same,NM_002467 expression Mean,"10 nM decitabine, 3 days",595.692
same,NM_0010397 expression Mean,"10 nM decitabine, 3 days",405.052
same,NM_138781 expression Mean,"10 nM decitabine, 3 days",305.526
same,NODAL NM_018055 expression Mean,"10 nM decitabine, 3 days",1549.19
same,NOP2 NM_0010337 expression Mean,"10 nM decitabine, 3 days",5354.42
same,NOP56 NM_006392 expression Mean,"10 nM decitabine, 3 days",2368.5
same,NP NM_000270 expression Mean,"10 nM decitabine, 3 days",340.821
same,NR_002773 expression Mean,"10 nM decitabine, 3 days",394.199
same,NR_003287 expression Mean,"10 nM decitabine, 3 days",182.319
same,NTF3 NM_002527 expression Mean,"10 nM decitabine, 3 days",184.819
same,NTS NM_006183 expression Mean,"10 nM decitabine, 3 days",457.501
same,NUAK2 NM_030952 expression Mean,"10 nM decitabine, 3 days",225.181 and 195.684
same,OAT NM_000274 expression Mean,"10 nM decitabine, 3 days",2711.86
same,ODC1 NM_002539 expression Mean,"10 nM decitabine, 3 days",2404.47
same,PAK1IP1 NM_017906 expression Mean,"10 nM decitabine, 3 days",603.531
same,PEA15 NM_003768 expression Mean,"10 nM decitabine, 3 days",969.289
same,PEG3 NM_006210 expression Mean,"10 nM decitabine, 3 days",256.384
same,PITX1 NM_002653 expression Mean,"10 nM decitabine, 3 days",267.398
same,PLAU NM_002658 expression Mean,"10 nM decitabine, 3 days",325.966
same,PLEKHF1 NM_024310 expression Mean,"10 nM decitabine, 3 days",367.904
same,POLR1C NM_203290 expression Mean,"10 nM decitabine, 3 days",414.276 and 557.268
same,PPA2 NM_006903 expression Mean,"10 nM decitabine, 3 days",606.161
same,PPAN NM_002566 expression Mean,"10 nM decitabine, 3 days",287.832
same,RBM22 NM_018047 expression Mean,"10 nM decitabine, 3 days",700.828
same,RNMTL1 NM_018146 expression Mean,"10 nM decitabine, 3 days",432.796
same,RPL6 NM_0010246 expression Mean,"10 nM decitabine, 3 days",1608.44
same,RRM2 NM_001034 expression Mean,"10 nM decitabine, 3 days",799.058
same,RSL1D1 NM_015659 expression Mean,"10 nM decitabine, 3 days",1458.69
same,RUNX3 NM_004350 expression Mean,"10 nM decitabine, 3 days",191.132
same,SERPINE1 NM_000602 expression Mean,"10 nM decitabine, 3 days",246.121
same,SERTAD1 NM_013376 expression Mean,"10 nM decitabine, 3 days",291.604
same,SFXN4 NM_213649 expression Mean,"10 nM decitabine, 3 days",481.671
same,SIDT2 NM_0010404 expression Mean,"10 nM decitabine, 3 days",326.437
same,SLC20A1 NM_005415 expression Mean,"10 nM decitabine, 3 days",1225.68
same,SNAPC4 NM_003086 expression Mean,"10 nM decitabine, 3 days",599.752
same,SOCS2 NM_003877 expression Mean,"10 nM decitabine, 3 days",182.936 and 244.438
same,SOX15 NM_006942 expression Mean,"10 nM decitabine, 3 days",1693.21
same,SPANXD NM_145665 expression Mean,"10 nM decitabine, 3 days",121.39
same,SPRYD5 NM_032681 expression Mean,"10 nM decitabine, 3 days",293.721
same,SQSTM1 NM_003900 expression Mean,"10 nM decitabine, 3 days",885.073
same,SRRT NM_015908 expression Mean,"10 nM decitabine, 3 days",2745.27
same,SUSD2 NM_019601 expression Mean,"10 nM decitabine, 3 days",1694.29
same,TAGLN NM_003186 expression Mean,"10 nM decitabine, 3 days",489.068
same,TNFRSF12A NM_016639 expression Mean,"10 nM decitabine, 3 days",296.715
same,TNFRSF13B NM_012452 expression Mean,"10 nM decitabine, 3 days",214.796
same,TNPO1 NM_153188 expression Mean,"10 nM decitabine, 3 days",240.816
same,TPRG1L NM_182752 expression Mean,"10 nM decitabine, 3 days",762.223
same,TRIM8 NM_030912 expression Mean,"10 nM decitabine, 3 days",529.909
same,TTC4 NM_004623 expression Mean,"10 nM decitabine, 3 days",851.239
same,UTP14A NM_006649 expression Mean,"10 nM decitabine, 3 days",736.541
same,WBSCR22 NM_017528 expression Mean,"10 nM decitabine, 3 days",958.822
same,XM_0011261 expression Mean,"10 nM decitabine, 3 days",824.879
same,XM_0011281 expression Mean,"10 nM decitabine, 3 days",1290.15
same,XR_015970 expression Mean,"10 nM decitabine, 3 days",527.915
same,XR_016703 expression Mean,"10 nM decitabine, 3 days",4025.84
same,XR_017241 expression Mean,"10 nM decitabine, 3 days",5144.11
same,XR_017543 expression Mean,"10 nM decitabine, 3 days",410.447
same,ZDHHC6 NM_022494 expression Mean,"10 nM decitabine, 3 days",344.248
same,ZHX2 NM_014943 expression Mean,"10 nM decitabine, 3 days",196.281
same,"A4GALT (NM_017436) gene expression, Mean",[1],279.705
same,"ABR (NM_001092) gene expression, Mean",[1],376.941
same,"ACACA (NM_198836) gene expression, Mean",[1],630.777
